Measured values: patent US20190127366A1 (LifeSci Pharmaceuticals, Inc., priority 2015, published 2019)

The compounds below were run against T1, human complement factor D (Homo sapiens, UniProt P00746) (assay: In vitro enzyme inhibition (Z-Lys-SBzl/DTNB absorbance assay)). Details: Complement Factor D (R&D Systems), substrate Z-Lys-SBzl, A405 nm; read-out: CFD IC50.
T1 construct: purchased R&D Systems 1824-SE
Format: biochemical
Protocol: The ability of the compounds disclosed herein to inhibit human complement factor D inhibitory activity was quantified according to the 12-step protocol provided below. • 1. Prepare assay buffer: 50 mM Tris/HCl, pH 7.5, 1 M NaCl. • 2. Dilute 10 mM Complement Factor D inhibitor Nafamostat Mesilate (Selleckchem, Catalog #S1386) solution from 10000 μM to 9.77 μM in 100% DMSO, 8 concentrations. Then dilute the serial concentrations of Nafamostat Mesilate 20-fold in assay buffer. • 3. Add 10 μl diluted Nafamostat Mesilate duplicated into each of the inhibitor control well of a 96-well plate (Corning, Catalog #3599). Final concentrations were 50 μM, 25 μM, 12.5 μM, 6.25 μM, 3.125 μM, 0.781 μM, 0.195 μM and 0.049 μM. 0.5% DMSO was in each well finally. • 4. Dilute 20 mM test compounds from 10000 μM to […] in 100% DMSO, 6-fold dilution, 8 concentrations. Then dilute the serial concentrations of test compounds 20-fold in assay buffer. • 5. Add 10 μl diluted test compounds duplicated into the 96-well plate. Final concentrations were 50 μM, 8.33 μM, 1.39 μM, 0.23 μM, 0.0386 μM, 0.0064 μM, 0.0011 μM and 0.0002 μM. 0.5% DMSO was in each well finally. • 6. Dilute 20 mM substrate Z-Lys-SBzl (Bachem, Cat #M-1300) to 200 μM in assay buffer with 200 μM DTNB(Sigma, Catalog #D8130). • 7. Dilute 738 ng/μL Complement Factor D (R&D Systems, Catalog #1824-SE) to 6.25 ng/μL in assay buffer. Add 40 μl diluted Complement Factor D in the 96-well plate. • 8. Positive control well contains Complement Factor D without test compound. Negative control well contains neither Complement Factor D nor test compound. Using assay buffer, bring the total volume of all controls to 50 μl. • 9. Pre-incubate the plate for 5 min at room temperature. • 10. Add 50 μl of diluted substrate/DTNB mixture into each well. Mix the reagents completely by shaking the plate gently for 30 sec. • 11. For kinetic reading: Immediately start measuring absorbance (A405 nm) continuously and record data every 30sec for 60 min. • 12. Data analysis • Inhibition activity of compound was evaluated by IC50. IC50 was calculated according the dose-response curve of compound fitted using GraphPadPrism with “log(inhibitor)-response (variable slope)” equation. • % inhibition was calculated by using following equation:
[formula] • Mean(NC): The average value of the negative control wells' A405 nm values. • Mean(PC): The average value of the positive control wells' A405 nm values.
The ability of the compounds in Table 2 to inhibit human complement factor D inhibitory activity was determined.

T1 sequence (P00746 26-253): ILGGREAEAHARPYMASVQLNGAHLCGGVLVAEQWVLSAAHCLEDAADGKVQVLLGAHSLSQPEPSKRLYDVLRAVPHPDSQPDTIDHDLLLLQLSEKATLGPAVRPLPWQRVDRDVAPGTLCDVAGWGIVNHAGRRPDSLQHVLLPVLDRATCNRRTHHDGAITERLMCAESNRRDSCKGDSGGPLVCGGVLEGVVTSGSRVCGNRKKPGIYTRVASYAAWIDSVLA

Row | SMILES | IC50
1 | O=C(O)c1nn(CC(=O)N2[C@@H]3CC[C@@H](C3)[C@H]2C(=O)Nc2cccc(Cl)n2)c2ccccc12 [Example 84, 1-(2-((1R,3S,4S)-3-((6-chloropyridin-2-yl)carbamoyl)-2-azabicyclo[2.2.1]heptan-2-yl)-2-oxoethyl)-1H-indazole-3-carboxylic acid] | > 10000 nM
2 | NC(=O)c1nn(CC(=O)N2[C@@H]3CC[C@@H](C3)[C@H]2C(=O)Nc2cc(Cl)ccn2)c2ccccc12 [Example 51, 1-(2-((1R,3S,4S)-3-((4-chloropyridin-2-yl)carbamoyl)-2-azabicyclo[2.2.1]heptan-2-yl)-2-oxoethyl)-1H-indazole-3-carboxamide] | 1000 to 10000 nM
3 | CC(=O)c1nn(CC(=O)N2[C@@H]3CC[C@@H](C3)[C@H]2C(=O)Nc2cccc(Cl)n2)c2ccc(C#N)cc12 [Example 92, (1R,3S,4S)-2-(2-(3-acetyl-5-cyano-1H-indazol-1-yl)acetyl)-N-(6-chloropyridin-2-yl)-2-azabicyclo[2.2.1]heptane-3-carboxamide] | 100 to 1000 nM
4 | N#Cc1ccc2c(c1)c(C(N)=O)nn2CC(=O)N1[C@@H]2CC[C@@H](C2)[C@H]1C(=O)Nc1cccc(Cl)n1 [Example 81, 1-(2-((1R,3S,4S)-3-((6-chloropyridin-2-yl)carbamoyl)-2-azabicyclo[2.2.1]heptan-2-yl)-2-oxoethyl)-5-cyano-1H-indazole-3-carboxamide] | 100 to 1000 nM
5 | NC(=O)c1ccc2c(c1)c(C(N)=O)nn2CC(=O)N1[C@@H]2CC[C@@H](C2)[C@H]1C(=O)Nc1cccc(Cl)n1 [Example 121, 1-(2-((1R,3S,4S)-3-((6-chloropyridin-2-yl)carbamoyl)-2-azabicyclo[2.2.1]heptan-2-yl)-2-oxoethyl)-1H-indazole-3,5-dicarboxamide] | 100 to 1000 nM
6 | NC(=O)c1nn(CC(=O)N2CC3CC2(C(=O)Nc2cccc(Cl)c2F)C3)c2ccccc12 [Example 150, 2-(2-(3-carbamoyl-1H-indazol-1-yl)acetyl)-N-(3-chloro-2-fluorophenyl)-2-azabicyclo[2.1.1]hexane-1-carboxamide] | > 10000 nM
7 | NC(=O)c1nn(CC(=O)N2[C@@H]3CC[C@@H](C3)[C@H]2C(=O)NCc2cccc(Cl)c2Cl)c2ccccc12 [Example 70, 1-(2-((1R,3S,4S)-3-((2,3-dichlorobenzyl)carbamoyl)-2-azabicyclo[2.2.1]heptan-2-yl)-2-oxoethyl)-1H-indazole-3-carboxamide] | 100 to 1000 nM
8 | NC(=O)Cc1ccc2c(c1)c(C(N)=O)nn2CC(=O)N1[C@@H]2CC[C@@H](C2)[C@H]1C(=O)NCc1cccc(Cl)c1F [Example 133, 5-(2-amino-2-oxoethyl)-1-(2-((1R,3S,4S)-3-((3-chloro-2-fluorobenzyl)carbamoyl)-2-azabicyclo[2.2.1]heptan-2-yl)-2-oxoethyl)-1H-indazole-3-carboxamide] | 1000 to 10000 nM
9 | CC(=O)c1nn(CC(=O)N2[C@@H]3CC[C@@H](C3)[C@H]2C(=O)Nc2cccc(Cl)n2)c2ccc(C)cc12 [Example 83, (1R,3S,4S)-2-(2-(3-acetyl-5-methyl-1H-indazol-1-yl)acetyl)-N-(6-chloropyridin-2-yl)-2-azabicyclo[2.2.1]heptane-3-carboxamide] | 100 to 1000 nM
10 | NC(=O)c1nn(CC(=O)N2[C@@H]3CC[C@@H](C3)[C@H]2C(=O)NC(C(=O)O)c2cccc(Cl)c2F)c2ccccc12 (stereo partly drawn) [Example 137, 2-((1R,3S,4S)-2-(2-(3-carbamoyl-1H-indazol-1-yl)acetyl)-2-azabicyclo[2.2.1]heptane-3-carboxamido)-2-(3-chloro-2-fluorophenyl)acetic acid] | 1000 to 10000 nM
11 | NC(=O)c1ccc(Cl)c(F)c1CNC(=O)[C@@H]1[C@H]2CC[C@H](C2)N1C(=O)Cn1nc(C(N)=O)c2ccccc21 [Example 118, 1-(2-((1R,3S,4S)-3-((6-carbamoyl-3-chloro-2-fluorobenzyl)carbamoyl)-2-azabicyclo[2.2.1]heptan-2-yl)-2-oxoethyl)-1H-indazole-3-carboxamide] | 1000 to 10000 nM
12 | NC(=O)c1nn(CC(=O)N2CCCCC[C@H]2C(=O)Nc2cccc(Cl)c2F)c2ccccc12 [Example 32, (S)-1-(2-(2-((3-chloro-2-fluorophenyl)carbamoyl)azepan-1-yl)-2-oxoethyl)-1H-indazole-3-carboxamide] | 1000 to 10000 nM
13 | NC(=O)c1nn(CC(=O)N2C3CCC(C3)[C@H]2C(=O)Nc2cccc(C(F)(F)F)n2)c2ccc(C3CC3)cc12 (stereo partly drawn) [Example 14, 5-cyclopropyl-1-(2-oxo-2-((3S)-3-((6-(trifluoromethyl)pyridin-2-yl)carbamoyl)-2-azabicyclo[2.2.1]heptan-2-yl)ethyl)-1H-indazole-3-carboxamide] | 1000 to 10000 nM
14 | COC(=O)c1ccc(NC(=O)[C@@H]2[C@H]3CC[C@H](C3)N2C(=O)Cn2nc(C(N)=O)c3ccccc32)nc1Cl [Example 107, Methyl 6-((1R,3S,4S)-2-(2-(3-carbamoyl-1H-indazol-1-yl)acetyl)-2-azabicyclo[2.2.1]heptane-3-carboxamido)-2-chloronicotinate] | 1000 to 10000 nM
15 | NC(=O)c1ccc2c(C(N)=O)nn(CC(=O)N3[C@@H]4CC[C@@H](C4)[C@H]3C(=O)Nc3cccc(Cl)n3)c2c1 [Example 124, 1-(2-((1R,3S,4S)-3-((6-chloropyridin-2-yl)carbamoyl)-2-azabicyclo[2.2.1]heptan-2-yl)-2-oxoethyl)-1H-indazole-3,6-dicarboxamide] | 100 to 1000 nM
16 | NC(=O)c1nn(CC(=O)N2[C@@H]3CC[C@@H](C3)[C@H]2C(=O)NCc2cccc(Cl)c2F)c2ccc(CCO)cc12 [Example 132] | 1000 to 10000 nM
17 | NC(=O)c1nn(CC(=O)N2[C@H](C(=O)Nc3cccc(Cl)n3)C[C@@H]3CCC[C@@H]32)c2ccc(C3CC3)cc12 [Example 162, 1-(2-((2S,3aS,6aS)-2-((6-chloropyridin-2-yl)carbamoyl)hexahydrocyclopenta[b]pyrrol-1(2H)-yl)-2-oxoethyl)-5-cyclopropyl-1H-indazole-3-carboxamide] | 100 to 1000 nM
18 | COC(=O)c1ccc2c(c1)c(C(N)=O)nn2CC(=O)N1[C@@H]2CC[C@@H](C2)[C@H]1C(=O)Nc1cccc(Cl)n1 [Example 78, methyl 3-carbamoyl-1-(2-((1R,3S,4S)-3-((6-chloropyridin-2-yl)carbamoyl)-2-azabicyclo[2.2.1]heptan-2-yl)-2-oxoethyl)-1H-indazole-5-carboxylate] | 100 to 1000 nM
19 | NC(=O)c1nn(CC(=O)N2CCNC[C@H]2C(=O)Nc2cccc(Cl)n2)c2ccccc12 [Example 26, (S)-1-(2-(2-((6-chloropyridin-2-yl)carbamoyl)piperazin-1-yl)-2-oxoethyl)-1H-indazole-3-carboxamide] | > 10000 nM
20 | Cc1cccc(NC(=O)[C@@H]2[C@H]3CC[C@H](C3)N2C(=O)Cn2nc(C(N)=O)c3ccccc32)n1 [Example 6, 1-(2-((1R,3S,4S)-3-((6-methylpyridin-2-yl)carbamoyl)-2-azabicyclo[2.2.1]heptan-2-yl)-2-oxoethyl)-1H-indazole-3-carboxamide] | 1000 to 10000 nM
21 | O=C(NCCO)c1nn(CC(=O)N2[C@@H]3CC[C@@H](C3)[C@H]2C(=O)Nc2cccc(Cl)n2)c2ccccc12 [Example 89, 1-(2-((1R,3S,4S)-3-((6-chloropyridin-2-yl)carbamoyl)-2-azabicyclo[2.2.1]heptan-2-yl)-2-oxoethyl)-N-(2-hydroxyethyl)-1H-indazole-3-carboxamide] | 1000 to 10000 nM
22 | NC(=O)c1nn(CC(=O)N2[C@H]3CC[C@H](C3)[C@@H]2C(=O)Nc2cccc(C(F)(F)F)n2)c2ccccc12 [Example 17, 1-(2-oxo-2-((1S,3R,4R)-3-((6-(trifluoromethyl)pyridin-2-yl)carbamoyl)-2-azabicyclo[2.2.1]heptan-2-yl)ethyl)-1H-indazole-3-carboxamide] | 1000 to 10000 nM
23 | NC(=O)c1nn(CC(=O)N2[C@H]3CC[C@H](CC3)[C@@H]2C(=O)Nc2cccc(Cl)c2F)c2ccccc12 [Example 149, (1S,3R,4S)-2-(2-(3-carbamoyl-1H-indazol-1-yl)acetyl)-N-(3-chloro-2-fluorophenyl)-2-azabicyclo[2.2,2]octane-3-carboxamide] | > 10000 nM
